Results taken from patent publication US9409915B2, “Substituted aza-bicyclic imidazole derivatives useful as TRPM8 receptor modulators” (Janssen Pharmaceutica NV, priority 2010, dated 2016).
Structures can show the parent of a compound that is named as a salt.

Molecular target: canine TRPM8 (Canis lupus familiaris, UniProt Q1A7N1)
Assay: In vitro canine TRPM8 functional assay (Ca2+-sensitive fluorescent dye, icilin activation)
Format: cell-based
Settings: HEK293 cells stably expressing canine TRPM8, icilin-induced Ca2+ response; for IC50: eight-point concentration-response
Description: The functional activity of representative compounds of the formula (I) of the present invention was quantified by measuring changes in intracellular calcium concentration using a Ca^2+-sensitive fluorescent dye. The changes in fluorescent signal were monitored by a fluorescence plate reader, either a FLIPR™ (Molecular Devices) or FDSS (Hamamatsu).
HEK293 cells stably expressing canine TRPM8 were routinely grown as monolayers in Dulbecco's minimum essential medium supplemented with 10% FBS, 2 mM L-glutamine, 100 units/mL penicillin, 100 ug/mL streptomycin and 400 μg/mL G418. Cells were maintained in 5% CO2 at 37° C. At 24 hr prior to assay, cells were seeded in black wall, clear-base poly-D-lysine coated 384-well plates (BD Biosciences, NJ, USA) at a density of 5,000 cells per well in culture medium and grown overnight in 5% CO2 at 37° C. On assay day, growth media was removed, and cells were loaded with Calcium 3 Dye (Molecular Devices) for 35 min at 37° C., under 5% CO2 and then incubated for 25 min at room temperature and atmosphere. Subsequently, cells were tested for agonist-induced increases in intracellular Ca^2+ levels using FLIPR™ or FDSS. Cells were treated with compounds of the formula (I) at varying concentrations and intracellular Ca^2+ was measured for 5 min prior to the addition of icilin to each well to achieve a final concentration that produces an approximately 80% maximal response.
Maximal fluorescence intensity (FI) achieved upon addition of icilin was exported from the FLIPR™ or FDSS software and further analyzed using GraphPad Prism 3.02 (Graph Pad Software Inc., CA, U.S.A.). Basal FI was subtracted prior to normalizing data to percent of maximal response. Curves were generated using the average of quadruplicate wells for each data point using nonlinear regression of either sigmoidal dose response or sigmoidal dose response (variable slope). Finally, the EC50 and IC50 values were calculated with the best-fit curve determined by GraphPad Prism

Sequence of canine TRPM8 (Q1A7N1 1-1104): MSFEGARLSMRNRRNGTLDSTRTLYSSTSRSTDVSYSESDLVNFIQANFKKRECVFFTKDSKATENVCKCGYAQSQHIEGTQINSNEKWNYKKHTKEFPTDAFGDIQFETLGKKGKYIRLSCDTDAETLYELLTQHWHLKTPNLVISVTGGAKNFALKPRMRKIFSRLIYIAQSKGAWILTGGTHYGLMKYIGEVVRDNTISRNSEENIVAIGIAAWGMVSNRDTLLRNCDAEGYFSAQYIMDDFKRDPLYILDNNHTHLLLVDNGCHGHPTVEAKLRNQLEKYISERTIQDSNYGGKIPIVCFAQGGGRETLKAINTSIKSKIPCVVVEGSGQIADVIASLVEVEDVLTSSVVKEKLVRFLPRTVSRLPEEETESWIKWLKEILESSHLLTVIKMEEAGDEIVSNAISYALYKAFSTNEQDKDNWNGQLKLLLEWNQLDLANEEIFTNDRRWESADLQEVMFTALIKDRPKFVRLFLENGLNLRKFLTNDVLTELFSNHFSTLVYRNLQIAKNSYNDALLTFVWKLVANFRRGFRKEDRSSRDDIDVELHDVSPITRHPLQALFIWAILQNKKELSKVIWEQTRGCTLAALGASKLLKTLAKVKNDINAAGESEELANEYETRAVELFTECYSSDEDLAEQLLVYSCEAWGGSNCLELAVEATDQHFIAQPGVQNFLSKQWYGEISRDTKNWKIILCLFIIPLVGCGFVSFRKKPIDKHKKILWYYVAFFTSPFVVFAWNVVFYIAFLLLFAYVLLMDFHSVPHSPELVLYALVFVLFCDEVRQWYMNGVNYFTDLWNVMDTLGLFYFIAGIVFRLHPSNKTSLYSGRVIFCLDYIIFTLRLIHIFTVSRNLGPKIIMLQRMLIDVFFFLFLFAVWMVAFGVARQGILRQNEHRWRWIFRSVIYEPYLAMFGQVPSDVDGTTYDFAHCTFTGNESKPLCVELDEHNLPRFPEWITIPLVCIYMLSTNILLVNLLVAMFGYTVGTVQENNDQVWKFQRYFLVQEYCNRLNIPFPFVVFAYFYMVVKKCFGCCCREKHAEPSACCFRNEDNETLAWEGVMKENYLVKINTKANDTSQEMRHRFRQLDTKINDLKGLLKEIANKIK

| SMILES | inhibition at 0.2 µM (HEK293, 0.2 μM compound) [%] | IC50 [nM] | inhibition at 0.2 µM (0.2 μM compound) [%] | % Inh @ 0.2 μM (0.2 μM compound) [%] | % Inh @ 0.2 μM (0.2 μM compound, hydrochloride) [%] |
| --- | --- | --- | --- | --- | --- |
| Cn1nc(C(C)(C)C)cc1-c1nc2cc(-c3ccccc3OC(F)(F)F)ncc2[nH]1 [Compound 39, 2-(5-tert-Butyl-2-methyl-2H-pyrazol-3-yl)-6-(2-trifluoromethoxy-phenyl)-3H-imidazo[4,5-c]pyridine hydrochloride] | 69 | 75 |  |  |  |
| COc1nc(-c2ccccc2Cl)cc2nc(-c3cnn(C(C)(C)C)c3C)[nH]c12 [Compound 100, 2-(1-tert-Butyl-5-methyl-1H-pyrazol-4-yl)-6-(2-chloro-phenyl)-4-methoxy-3H-imidazo[4,5-c]pyridine sodium salt] |  | 61.3 | 94 |  |  |
| Cn1nc(C(C)(C)C)c(C#N)c1-c1nc2cc(-c3ccccc3C(F)(F)F)nc(Cl)c2[nH]1 [Compound 75, 3-tert-Butyl-5-[4-chloro-6-(2-trifluoromethyl-phenyl)-3H-imidazo[4,5-c]pyridin-2-yl]-1-methyl-1H-pyrazole-4-carbonitrile Hydrochloride] |  | 24 | 100 |  |  |
| Cn1nc(C(C)(C)C)c(Cl)c1-c1nc2nc(-c3ccccc3Cl)cnc2[nH]1 [Compound 110] |  | 24 |  | 99 |  |
| Cn1nc(C(C)(C)C)c(Cl)c1-c1nc2nc(-c3ccccc3OC(F)(F)F)cnc2[nH]1 [Compound 94, 2-(5-tert-Butyl-4-chloro-2-methyl-2H-pyrazol-3-yl)-5-(2-trifluoromethoxy-phenyl)-1H-imidazo[4,5-b]pyrazine] |  | 22.5 | 99 |  |  |
| Cl.Cn1nc(C(C)(C)C)c(Cl)c1-c1nc2cc(-c3ccccc3F)ncc2[nH]1 [Compound 43, 2-(5-tert-Butyl-4-chloro-2-methyl-2H-pyrazol-3-yl)-6-(2-fluoro-phenyl)-3H-imidazo[4,5-c]pyridine hydrochloride] |  | 22 |  |  | 100 |
| Cn1nc(C(C)(C)C)c(C#N)c1-c1nc2cc(-c3ccccc3C(F)(F)F)nc(OCC(F)(F)F)c2[nH]1 [Compound 15, 3-tert-Butyl-1-methyl-5-[4-(2,2,2-trifluoro-ethoxy)-6-(2-trifluoromethyl-phenyl)-3H-imidazo[4,5-c]pyridine-2-yl]-1H-pyrazole-4-carbonitrile methanesulfonic acid salt] |  | 1.8 | 100 |  |  |
| Cn1nc(C(C)(C)C)c(Cl)c1-c1nc2cc(-c3ccccc3OC(F)(F)F)nc(OCC(F)(F)F)c2[nH]1 [Compound 90, 2-(5-tert-Butyl-4-chloro-2-methyl-2H-pyrazol-3-yl)-4-(2,2,2-trifluoro-ethoxy)-6-(2-trifluoromethoxyphenyl)-3H-imidazo[4,5-c]pyridine sodium salt] |  | 0.73 | 99 |  |  |
| COc1nc(-c2ccccc2Cl)cc2nc(-c3nc(C(C)(C)C)cn3C)[nH]c12 [Compound 111, 2-(4-tert-Butyl-1-methyl-1H-imidazol-2-yl)-6-(2-chloro-phenyl)-4-methoxy-3H-imidazo[4,5-c]pyridine] |  |  | 62 |  |  |
| Cn1nc(C(C)(C)C)c(Cl)c1-c1nc2cc(-c3ccccc3F)nc(OCC(F)(F)F)c2[nH]1 [Compound 91, 2-(5-tert-Butyl-4-chloro-2-methyl-2H-pyrazol-3-yl)-6-(2-fluorophenyl)-4-(2,2,2-trifluoroethoxy)-3H-imidazo[4,5-c]pyridine sodium salt] |  | 3.8 | 99 |  |  |
| Cl.Cn1nc(C(C)(C)C)c(Cl)c1-c1nc2cc(-c3ccccc3F)ncc2[nH]1 [Compound 48, 2-(5-tert-Butyl-4-chloro-2-methyl-2H-pyrazol-3-yl)-6-(2-fluoro-phenyl)-3H-imidazo[4,5-c]pyridine hydrochloride] |  |  |  |  | 59 |
| CC(C)Oc1nc(-c2ccccc2C(F)(F)F)cc2nc(-c3c(Cl)c(C(C)(C)C)nn3C)[nH]c12 [Compound 16, 2-(5-tert-Butyl-4-chloro-2-methyl-2H-pyrazol-3-yl)-4-isopropoxy-6-(2-trifluoromethyl-phenyl)-3H-imidazo[4,5-c]pyridine benzenesulfonic acid salt] |  | 0.59 | 99 |  |  |
